Measured values reported in US12421260B2, “Neurokinin-1 antagonist” (SHANGHAI SHENGDI PHARMACEUTICAL CO., LTD, priority 2019, dated 2025).
In brackets after ≈: the same amount, converted by molar mass. Like-named read-outs stand apart in the source and are kept apart here. Blank lines part the entries; values can stand above or below the molecule they belong to.

Experiments:
Red blood cells (RBC) = test: Hemolytic effect (Test Example 8); type: cell-based, rabbits; settings: rabbit red blood cell 2% suspension, PBS
Protocol: Red blood cells (RBC) were collected from the jugular vein or central ear artery of rabbits (10 ml of EDTA whole blood). The blood was put in a conical flask with glass beads and shaken for 10 minutes to remove fibrinogen, resulting in defibrinated blood. About 10 times the amount of sodium chloride solution was added to the defibrinated blood, which was then shaken well and centrifuged at 1500 rpm for 10 minutes. The supernatant was removed and the precipitated red blood cells were washed with sodium chloride injection for 3 times according to the above method, until the supernatant was observed colorless. The obtained red blood cells were prepared into a 2% (v/v) suspension with sodium chloride injection for later use.
The test samples (the compound of Example 5 and the compound of Example 19) were respectively dissolved in PBS (pH 7.4 or pH 5) and filtered to prepare 0.4 mg/ml, 0.8 mg/ml, 1.2 mg/ml, 1.6 mg/ml and 2 mg/ml solutions for later use.
A certain amount of test sample solution was added to the above […] for testing in the supernatant.
The sample should be further observed under a microscope, and if red blood cells can be seen as aggregated, then coagulation has occurred. The hemolytic effect of the compounds of the present disclosure was determined by using this method.

[1] = Metabolism in plasma of mouse (Test Example 4); type: in vitro ADME; set-up: unit not given here
Protocol: (§1) 5 μL of the 16 μM working solution of the compound of Example 5 was added to 75 μL plasma at a final concentration of 1 μM. The samples were incubated in a 37° C. water bath for 0, 15, 30, 60, 90, 120 and 180 min. After completion of the incubation, 240 μL of internal standard containing acetonitrile was added into the samples which was then shaken on a shaker at 800 rpm for 10 min and centrifuged at 3700 rpm at 4° C. for 20 min. The supernatant was analyzed by LC-MS, and the injection volume was 2 μL.
(§2) The metabolism of the compounds of Example 1, Example 2 and Example 8 in the plasma of mouse, rat and human was determined by referring to the test method in Test Example 2.

[2] = Metabolism in plasma of rat (Test Example 4); type: in vitro ADME; set-up: unit not given here
Protocol: as §1, §2

[3] = Water solubility (Test Example 1); type: physicochemical; settings: aqueous buffer, thermodynamic from solid
Protocol: 1.1. Preparation of Reagents
The 100 mL strength reagents were prepared as follows:
pH=3.0: phosphate buffer solution: 100 ml of 20 mmol/L NaH2PO4, 0.1M H3PO4, adjusting pH to 3.0.
pH=4.0: phosphate buffer solution: 100 ml of 20 mmol/L NaH2PO4, 0.1M H3PO4, adjusting pH to 4.0. […]
An appropriate amount of test compound was accurately weighed. The solution was added at a small amount each time for several times and stirred until the compound was dissolved, and the content of the compound in the solution was determined.

[4] = Chemical stability of the compounds (Test Example 1); type: physicochemical; settings: purity loss after placing for 7 days; 4° C. and room temperature
Protocol: 2.1 Test of Stability of the Compounds
About 1 mg of sample was weighed into a vial, then the vial was placed in a vacuum bag and the bag was vacuumized. Then the bag was put into a container containing color-changing silica gel and sealed. Two parallel samples were prepared. Enough samples were prepared according to the sampling time point and placed at 4° C. and room temperature respectively.

[5] = Metabolism in human plasma (Test Example 4); type: in vitro ADME; set-up: plasma concentration of the compounds of the examples: unit not given here
Protocol: as §1, §2

[6] = Pharmacokinetic test in cynomolgus monkeys, Example 5 (Test Example 6); type: in vivo; settings: for AUC(0-t) / Cmax / Tmax: cynomolgus monkey, iv 2 mg/kg Example 5
Protocol: Cynomolgus monkeys were used as the test animals. The plasma drug concentration at different time points after iv administration of the compound of Example 5 by injection was determined using LC/MS/MS method. The in vivo pharmacokinetic of the compound of the present invention in cynomolgus monkeys was studied, and the pharmacokinetic characteristics were evaluated.
A certain amount of the compound of Example 5 was weighed and prepared into a pH=4.0 solution by using 20 mmol/L sodium dihydrogen phosphate for later use.
The drug was administered by intravenous with injection time of about 30 min, administration dose of 2 mg/kg, administration concentration of 0.4 mg/ml and administration volume of 5 ml/kg.
(§3) Blood was collected from the femoral vein before administration and 5 min, 0.25 h, 0.5 h, 1 h, 2 h, 4 h, 6 h, 8 h, 10 h, 24 h and 48 h after administration. About 0.6 ml of was collected for each sample, which was subject to anticoagulation using heparin sodium and placed on ice immediately after collection. The blood samples were placed in labeled centrifuge tubes after collection, and plasma was separated by centrifugation (centrifugation conditions: centrifugal force 2200 g, centrifugation at 2-8° C. for 10 min).
The content of the compound of Example 5 and rolapitant in plasma samples was determined by LC/MS/MS.

[7] = Plasma stability test, conversion in fresh human plasma (Test Example 2); type: in vitro ADME; settings: for Compound of Example 5 concentration in plasma: human plasma, 37° C.
Protocol: The compound of Example 5 and the compound of formula I.
Human fresh plasma was donated by volunteers with informed consent.
1.3 Preparation of Solution of the Compound
A certain amount of the compound of Example 5 was weighed and DMSO was added to prepare a 30 mM stock solution. A certain volume of the stock solution was diluted with DMSO to prepare solution I at a concentration of 1600 μM. Then a certain volume of the 1600 μM solution I was diluted with 45% methanol to prepare working solution II at a concentration of 16 μM. The 30 mM stock solution and the 1600 μM solution […] for the compound of formula I were also prepared by the above method.
as §1
1.5 Preparation of Standard Curve
The previously 1600 μM solution I was diluted with acetonitrile to prepare the standard curve working solution with concentrations of 160, 400, 1600, 4000, 8000, 16000 and 32000 ng/mL. The concentration of QC working solution was 480, 1920 and 25600 ng/mL. 5 μL of the standard curve working solution and QC working solution were added to 75 μL plasma to obtain the standard curve samples with final concentrations of 10, 25, 100, 250, 500, 1000 and 2000 ng/mL and QC samples with final concentrations of 30, 120 and 1600 ng/mL. 240 μL of acetocyano containing the internal standard was then added into the samples quickly, which was then shaken in a shaker at 800 rpm for 10 min and centrifuged at 3700 rpm at 4° C. for 20 min. The supernatant was collected and analyzed by LC-MS, and the injection volume was 2 μL.
The standard curve of the compound of formula I and QC sample were prepared by the above method.

[8] = In vivo pharmacokinetic test in rats (Test Example 5); settings: plasma, rat, intravenous bolus 2 mg/kg
Protocol: Rats were used as the test animals. The plasma drug concentration at different time points after administration of the compounds of Example 1 and Example 2 by injection was determined using LC/MS/MS method. The in vivo pharmacokinetic of the compounds in rats was studied, and the pharmacokinetic characteristics were evaluated.
A certain amount of the compounds of Example 1 and Example 2 were weighed and prepared into a pH=4.0 solution by using 20 mmol/L sodium dihydrogen phosphate for later use.
The drug was administered by intravenous bolus injection with an injection time of about 5 min, administration dose of 2 mg/kg, administration concentration of 0.4 mg/ml and administration volume of 5 ml/kg.
as §3, with “orbital” for “femoral”, “mL” for “ml of”, “sample” for “sample,”

Molecule: C[C@@H](OC[C@@]1(c2ccccc2)CC[C@]2(CCC(=O)N2)CN1C(=O)OCOP(=O)(O)O)c1cc(C(F)(F)F)cc(C(F)(F)F)c1 [Example 19]
concentration with no hemolytic effect (Red blood cells (RBC)): up to 2 mg/ml

Molecule: CC(C)[C@H](N)C(=O)OCOC(=O)N1C[C@@]2(CCC(=O)N2)CC[C@@]1(CO[C@H](C)c1cc(C(F)(F)F)cc(C(F)(F)F)c1)c1ccccc1 [Example 5]
in vivo transformation into rolapitant (in words) ([6]; cynomolgus monkeys, iv 2 mg/kg): most of the compound were rapidly transformed into the active metabolite rolapitant | AUC(0-t) ([6]; plasma, analyte Example 5, read-out: AUC0-t): 0.77 ± 0.29 ng·h/mL | Cmax ([6]; plasma, analyte Example 5, read-out: Cmax): 2.28 ± 0.39 ng/mL | Tmax ([6]; plasma, analyte Example 5, read-out: Tmax): 6.6 ± 7.2 min | concentration with hemolytic effect (Red blood cells (RBC)): ≥ 40000 ng/mL | solubility ([3]; phosphate buffer, PH = 4): > 10000 µg/mL | Compound of Example 5 concentration in plasma ([7]; 0 min, 1 μM start): 1 µM | Compound of Example 5 concentration in plasma ([7]; 15 min): 0.53 µM | Compound of Example 5 concentration in plasma ([7]; 30 min): 0.12 µM | Compound of Example 5 concentration in plasma ([7]; 60 min): 0.01 µM | Compound of Example 5 concentration in plasma ([7]; 90 min): 0.00 µM | Compound of Example 5 concentration in plasma ([7]; 120 min): 0.00 µM | Compound of Example 5 concentration in plasma ([7]; 180 min): 0.00 µM | Chemical stability [4]: Good (purity reduced by <0.5% after placing for 7 days)

Molecule: C[C@@H](OC[C@@]1(c2ccccc2)CC[C@]2(CCC(=O)N2)CN1C(=O)OCCCOP(=O)(O)O)c1cc(C(F)(F)F)cc(C(F)(F)F)c1 [Example 2]
plasma concentration of the compounds of the examples [1]: 91.17 | AUC(0-t) ([8]; read-out: AUC0-t of the compound of the example): 41.6 ng·h/mL | AUC(0-inf) ([8]; read-out: AUC0-∞ of the compound of the example): 42.2 ng·h/mL | MRT inf ([8]; read-out: MRT 0-∞ of the compound of the example): 4.38 min | half-life ([8]; read-out: T1/2 of the compound of the example (converted)): 5.22 min | plasma concentration of the compounds of the examples [2]: 97.70 | solubility ([3]; PH = 5): 9050 µg/mL (≈ 13.3 mM) | Chemical stability [4]: Good (purity reduced by <0.5% after placing for 7 days) | conversion into rolapitant (in words) [5]: basically no convertion into rolapitant in human plasma, or only a slight conversion | plasma concentration of the compounds of the examples [5]: 99.00

The next lines start with results.

plasma concentration of the compounds of the examples [1]: 61.67 | plasma concentration of the compounds of the examples [2]: 59.89 | solubility ([3]; PH = 5): 1370 µg/mL (≈ 2.28 mM) | conversion rate into rolapitant [5]: ~46% | plasma concentration of the compounds of the examples [5]: 54.54
Molecule: C[C@@H](OC[C@@]1(c2ccccc2)CC[C@]2(CCC(=O)N2C(=O)CCC(=O)O)CN1)c1cc(C(F)(F)F)cc(C(F)(F)F)c1 [Example 8]
Chemical stability [4]: Moderate (purity reduced by 0.5%~2.0% after placing for 7 days)

AUC(0-t) ([6]; analyte rolapitant): 4326.87 ± 1820.65 ng·h/mL | Cmax ([6]; analyte rolapitant): 315.25 ± 97.08 ng/mL | Tmax ([6]; analyte rolapitant): 8.4 ± 6 min | Compound of formula 1 concentration formed from Example 5 ([7]; human plasma incubated with 1 μM Example 5, 0 min): 0.00 µM | Compound of formula 1 concentration formed from Example 5 ([7]; human plasma incubated with 1 μM Example 5, 15 min): 0.78 µM | Compound of formula 1 concentration formed from Example 5 ([7]; human plasma incubated with 1 μM Example 5, 30 min): 1.18 µM | Compound of formula 1 concentration formed from Example 5 ([7]; human plasma incubated with 1 μM Example 5, 60 min): 1.22 µM | Compound of formula 1 concentration formed from Example 5 ([7]; human plasma incubated with 1 μM Example 5, 90 min): 1.31 µM | Compound of formula 1 concentration formed from Example 5 ([7]; human plasma incubated with 1 μM Example 5, 120 min): 1.28 µM | Compound of formula 1 concentration formed from Example 5 ([7]; human plasma incubated with 1 μM Example 5, 180 min): 1.02 µM
Molecule: (5S,8S)-8-[{(1R)-1-(3,5-bis-(trifluoromethyl)phenyl)-ethoxy}-methyl]-8-phenyl-1,7-diazaspiro[4.5]dec-2-one [Rolapitant, reference compound]
